Source: patent publication US11396643B2, “Compositions comprising bacterial strains and use thereof in controlling pathogenic microorganisms” (Better Air International Limited, priority 2018, dated 2022)

What was measured:
Assay in all cases: Agar well diffusion antifungal assay
Assay type in all cases: cell-based
Details in all cases: PDA plates, 25° C. 72 h
[1] = tested on: Alternaria alternata (Fries) Keissler (ATCC MYA-4642)
Procedure: (§1) Brain Heart Infusion (BHI) Agar was used for the antagonism against pathogenic microorganisms while the Potato Dextrose Agar (PDA) was used for evaluation against molds. […] Molds were prepared using PDA at 25° C. with 85% HR for 7 days. […] The same amount of mold spore suspension was inoculated on PDA.

[2] = tested on: Cladosporium sphaerospermum Penzig (ATCC MYA-4645)
Procedure: as §1

[3] = tested on: Penicillium chrysogenum Thom (ATCC MYA-4644)
Procedure: as §1

OO [Hydrogen peroxide 10%, Hydrogen peroxide]
Inhibition zone, Alternaria alternata (Fries) Keissler (ATCC MYA-4642) [1]: 8 mm | Inhibition zone, Cladosporium sphaerospermum Penzig (ATCC MYA-4645) [2]: 12 mm | Inhibition zone, Penicillium chrysogenum Thom (ATCC MYA-4644) [3]: 10 mm
